This is an account of results in patent US20080299131A1, “Anti-Viral Compositions” (priority 2004, published 2008).

Data set [1] concerns VACV harvested from supernatant of infected cells (predominantly EEV). The data set is classed as cell-based, Vaccinia virus strain WR.
Data set [2] deals with EEV. The class given is cell-based, Vaccinia virus strain WR.
Data set [3] relates to VACV strain WR-induced actin tails. The data set is classed as cell-based, Vaccinia virus strain WR.
For data set [4], the system named is VACV strain WR. The data set is classed as in vivo, mice. The following applies: 2 mg polyanion intranasally 2 days post-infection; for benefit with polyanion in mice that received human IgG: Hu anti-VV Ab 500 μg; for weight loss after infection, polyanion alone: non-immune IgG, 1×10^4 pfu.
Data set [5] relates to VACV strain WR. The class given is in vivo, mice. The following applies: 3×10^3 pfu, polyanion intranasally on one and three days post-infection.
Data set [6] has as its system VACV (most likely IMV form). As to conditions: DS per se at 80 μg/ml; cited from earlier work.
Data set [7] in a line: Tolerability of polyanions administered to mice. The following applies: for weight loss or illness after intranasal administration: up to 2 mg/mouse intranasally; for adverse effects after intraperitoneal injection: unpublished data.
The test system of data set [8] is EEV. The class given is cell-based, Vaccinia virus.
Data set [9] has as its system VACV strain WR. The data set is classed as cell-based, Vaccinia virus strain WR.
Another data set has as its system EEV membrane. On the set-up: species or system Vaccinia virus strain WR.
The subject of another data set is CEV outer membrane. The class given is cell-based, Vaccinia virus strain WR.
For data set [10], the system named is VACV strain WR. Also on record: species or system mice. The following applies: mouse, in vivo.

Entries after “also recorded” stand apart in the source; their conditions may differ.

As to dextran sulphate [DS], in [1], the “infectivity of virus in the supernatant of VACV-infected cells” value is “did not reduce the infectivity” and the “neutralizing activity of both antisera” value is reported as 56-63%. Besides, the “virus infectivity in the supernatant” value with EEV [2] is on record as “abolished virus infectivity”. For the same substance, in data set [3], the “actin tails formed in cells that made actin tails” value is reported as “significantly fewer actin tails were formed” and the “cells found to make actin tails” value came out at 15%. In the data set on VACV strain WR [4], the “protection with polyanion in mice passively immunised with rabbit anti-IMV IgG” value is listed as “potentiated the therapeutic effect of this Ab”; the “benefit with polyanion in mice that received human IgG” value is “less effective”; the “weight loss after infection, polyanion alone” value is listed as “slightly less weight loss”. Besides, the “benefit in vivo at lower virus challenge” value with VACV strain WR [5] was “confirmed”. Moreover, in [6], the “inhibition of VACV” value is given as “only partially inhibit VACV”. In addition, the “weight loss or illness after intranasal administration” value (shortened to “weight loss or illness”) in data set [7] is on record as “did not cause weight loss or illness”.
Consider heparin [HP-HWM], for which the “relative effectiveness at rendering EEV sensitive to anti-IMV antibody” value (“relative effectiveness” below) in the data set with EEV [2] was “more potent than HP and DS; also recorded: more effective than heparin with lower molecular weight”.
Take dextran sulphate [DS-HMW]: the “relative effectiveness” value in the data set on EEV [2] was “more potent than HP and DS; also recorded: more effective than DS with lower molecular weight”. The substance also came in with a body weight reduction in data set [7] (2 mg/mouse intranasally, after 2 days) of 15%. In [7], the “adverse effects after intraperitoneal injection” value was “did not affect the mice adversely”. Also, the “weight loss or illness” value in [7] (listed as high MW DS) is given as “increased respiratory effort, followed by breathing difficulty”.
Take heparin [HP]: in [1], the “infectivity of virus in the supernatant of VACV-infected cells” value is recorded as “did not reduce the infectivity” and the “neutralizing activity of both antisera” value was 55-61%. In the data set with EEV [2], the “relative effectiveness” value was “more effective at the dose tested than desulphated HP” and the “virus infectivity in the supernatant” value is listed as “abolished virus infectivity”. Further, in the data set with EEV [8], the binding of virus result is given as “neither binding nor entry of virus was affected significantly” and the “entry of virus (intracellular cores)” value is “neither binding nor entry of virus was affected significantly”. Also, in the data set with VACV strain WR [9], the “titre of virus released into the culture medium” value is “no significant difference” and the “titre of virus that remained cell-associated” value is “no significant difference”. In addition, in [3], the “actin tails formed in cells that made actin tails” value is recorded as “significantly fewer actin tails were formed” and the “cells found to make actin tails” value was found to be 15%. In the data set on EEV membrane, the “surface of virions associated with EEV membrane” value worked out at 46.4%. For the same substance, in the data set with CEV outer membrane, the “actin tails seen by EM” value was “actin tails were rarely seen” and the “outer membrane of CEV bound to the cell surface” value is given as “disrupted the outer membrane of CEV”. Further, in the data set with VACV strain WR [4], the “protection with polyanion in mice passively immunised with rabbit anti-IMV IgG” value is “provided protection to a level equivalent to rabbit IgG generated against live infection”; the “benefit with polyanion in mice that received human IgG” value is on record as “provided similar benefit”; the “weight loss after infection, polyanion alone” value is “slightly less weight loss”. Besides, in the data set with VACV strain WR [10], the “reduction of level of virus in lungs” value is “about 10 fold”; the “reduction of levels of virus in the brain” value was > 100 fold; the “virus titres, HP in absence of anti-VACV Ab” value is recorded as “titres were lower than in the absence of HP”. In the data set with VACV strain WR [5], the “benefit in vivo at lower virus challenge” value was “confirmed”. In data set [7], the “adverse effects after intraperitoneal injection” value is given as “did not affect the mice adversely” and the “weight loss or illness” value is reported as “did not cause weight loss or illness”.
